Five compounds from patent US20230131899A1, “INHIBITORS OF MICROBIALLY INDUCED AMYLOID” (Axial Therapeutics, Inc., priority 2020, published 2023) can be followed below.

One assay concerns the target T1, E. coli CsgA (Escherichia coli, UniProt P28307).
T1 construct: made in house; host or cells: E. coli NEB 3016 slyD::kan, pET11d
As to the kind of experiment: In vitro ThioflavinT assay of CsgA aggregation (CsgA ThT Assay). It counts as biochemical. The method, then: In vitro ThioflavinT assay to determine effects of compounds on CsgA aggregation. To assess the effects of compounds on aggregation of E. coli CsgA, a cell-free assay was performed using purified CsgA and Thioflavin T. In the assay, histidine-tagged CsgA was over-expressed in E. coli NEB 3016 slyD::kan cells harboring a pET11d vector containing a C-terminal 6× His tag. Following growth in rich media, CsgA production is induced at an OD600 of approximately 1.0 by addition of 0.5 mM IPTG (isopropyl beta-D-1-thiogalactopyranoside) followed by incubation at 37° C. for 1-4 hours with shaking at 200-250 rpm. Bacteria were resuspended in 8 M guanidine hydrochloride in 50 mM potassium phosphate buffer, pH 7.3 and lysed by sonication on ice using three 20 second intervals. The resulting lysate was incubated on a platform rocker for 1 hour at room temperature. After centrifugation at 10,000×g for 20 minutes, the supernatant was further sonicated on ice for three 20 second intervals and then incubated with nickel-nitrilotriacetic acid resin (Sigma) at room temperature for 1 hour in a 50 mL conical tube on a platform rocker. The resin was washed and pelleted 5 times with 45 mL 8 M guanidine in 50 mM potassium phosphate buffer pH 7.3. The resin was further washed and pelleted two times with 8 M guanidine hydrochloride in 50 mM potassium phosphate buffer pH 7.3 containing 12.5 mM imidazole. Purified CsgA protein was eluted two times with 5 mL of 6-8 M guanidine hydrochloride in 50 mM potassium phosphate buffer, pH 7.3 containing 250 mM imidazole. The eluted protein was aliquoted with 150 μL per aliquot, snap frozen in liquid nitrogen, and stored at −80 C. In order to obtain monomeric CsgA, the purified CsgA protein was thawed and passed through two pre-chilled desalting columns (Zeba) to remove imidazole and guanidine. The buffer exchanged protein was loaded onto a 30-kDa centrifugal filter unit (Amicon) and spun for 30 minutes at 7500×g to remove dimers and other oligomers. Protein concentration was assessed by the NanoDrop technique (Thermo Scientific), as is familiar to one skilled in the art. The CsgA aggregation assay was conducted in 96-well black non-binding surface or white untreated microplates with 20-40 μM ThioflavinT, 50 mM potassium phosphate buffer pH 7.3, 1% DMSO, CsgA at 2-20 μM, and compounds at 3.125-200 uM. The vehicle control wells contain all components of the assay except test compounds and represent the level of CsgA aggregation in the absence of any inhibitor or accelerator. Plates were incubated at room temperature in a Tecan Nano F200 plate reader with excitation at 438 nm using a 439 nm filter with a bandwidth of 8 nm, and emission at 495 nm with a 490 nm filter with a bandwidth of 10 nm, or in a SpectraMax M5, SpectraMax M2 or SpectraMax® i3X (Molecular Devices, San Jose, Calif.) spectrophotometer with excitation at 438 nm and emission at 495 nm. During the assay, plates were shaken initially for 5 seconds and subsequently for 3 seconds prior to fluorescent readings. Readings were performed every 15 minutes for up to 1005 minutes. The effect of compounds on CsgA aggregation in the assay was determined with data from 0-17 hours. Fluorescence values for each compound with CsgA were first adjusted by subtracting the average fluorescence of the compound in the absence of CsgA or in the presence of CsgA and compound at time 0 or 15 minutes. The data were analyzed in several ways:
1. The adjusted ThT fluorescence values were normalized by dividing them by the average fluorescence in the vehicle control wells containing CsgA. The median normalized fluorescence from 6-6.5 hours or 8-9 hours with the compound was expressed as a percentage of the median fluorescence observed in vehicle controls over the same time period. Percent inhibition of CsgA aggregation by a compound was determined by subtracting the percent average fluorescence with the compound relative to the vehicle controls from 100%. […]

The subject of assay [1] is CsgA gene expression (csgBAC promoter-GFP reporter) in E. coli UTI89. Put plainly: In vitro live cell fluorescent reporter assay of CsgA transcription (Reporter Assay). Format: cell-based. The protocol:
In vitro live cell fluorescent reporter assay to determine effects of compounds on CsgA transcription. To assess the impact of compounds on CsgA gene expression, a live cell assay was performed using an engineered strain of E. coli UTI89 with a fluorescent CsgA gene expression reporter driven by the csgBAC promoter. In the reporter strain, a gene encoding Green Fluorescent Protein (GFP) was placed immediately downstream of the full intergenic region between csgDEF and csgBAC, containing the csgBAC promoter and other transcriptional regulatory elements, and inserted in single copy into the E. coli UTI89 chromosome, as described in Cegelski et. al., “Small-molecule inhibitors target Escherichia coli amyloid biogenesis and biofilm formation,” Nat. Chem. Bio., 25 Oct. 2009. With this construct, GFP expression in the reporter strain was under the same regulation as CsgA expression. The reporter strain was struck out on a YESCA agar plate (1 g/L yeast extract, 10 g/L casamino acids, 20 g/L Bacto Agar) and grown at about 27° C. for 2 days, or until single colonies were sufficiently large to pick. A single colony of the reporter strain was used to inoculate 5 mL of YESCA broth (1 g/L yeast extract, 10 g/L casamino acids), which was grown overnight at about 27° C. The inoculum was diluted 1:10 in YESCA broth and the optical density at 600 nm (OD600) was measured on a SpectraMax M2 or M5e (Molecular Devices, San Jose, Calif.) spectrophotometer in cuvettes. The culture was then further diluted to achieve a final OD600 of 0.003, which was confirmed by measurement of the OD600. Compounds were diluted in dimethyl sulfoxide (DMSO) and plated on black clear-bottomed tissue culture-treated 96-well plates with 1.5 μL/well for final test concentrations from 0.14-100 μM. All assay wells, including vehicle controls and positive controls for inhibition, included 1% DMSO final. Vehicle control wells consisted of DMSO and the reporter strain to assess the expression of the reporter strain in the assay in the absence of any compound. […] 148.5 μL culture at OD600 0.003 in YESCA broth was added to all wells for 150 μL final volume. Plates were incubated at 27° C. for 20 hours, then GFP fluorescence signal for each well was read on a Spectramax M2 or M5e plate reader with excitation at 485 nm, emission at 525 nm, and a cutoff at 515 nm. OD600 for each well was also measured on the Spectramax M2 or M5e plate reader. […] Background fluorescence was subtracted from all wells, then fluorescence signal for each well was normalized to the mean of the vehicle control wells. Normalized dose response curves were plotted for each compound, and compound inhibition of CsgA transcription was determined by assessing the curve-fit IC50, bottom, top, span (top-bottom), and Hill slope using GraphPad Prism software version 8.1.1 (GraphPad Software, San Diego, Calif.). An additional metric used to evaluate compounds was the concentration at which the curve reached 50% of the expression level of the vehicle control. This was written as a custom analysis in GraphPad Prism according to the formula X[50], or the X value at which Y=50, ie, the compound concentration at which fluorescence of the reporter strain was calculated to reach 50% of the vehicle control fluorescence. Separately from the fluorescence data, OD600 values were normalized to the mean of the vehicle control wells, and dose response curves were plotted for each compound. OD600 reduction of greater than 10% indicated compounds had some toxicity or negative impact on bacterial growth. […]
A general note: A reporter such as luciferase makes a cellular process visible.

The mark [2] stands for this setting: Escherichia coli, read-out: Reporter Assay Abs IC50 (μM), median Abs IC50 in the CsgA reporter assay, N/A = maximum expression reduction is <50% of control.
Where [3] appears, read: read-out: CsgA ThT Assay (10 μM CsgA) % Control AUC at 1005 minutes, 25 μM (activity range), CsgA 10 μM, black plates, compound 25 μM, 1005 minutes, class symbol.
Setting [4] is: read-out: CsgA ThT Assay (10 μM CsgA) % Control AUC at 1005 minutes, 25 μM, mean AUC as % of DMSO control, CsgA 10 μM, black plates, compound 25 μM, 1005 minutes.
The mark [5] stands for this setting: read-out: CsgA ThT Assay (10 μM CsgA) % Control AUC at 1005 minutes, 100 μM (activity range), CsgA 10 μM, black plates, compound 100 μM, 1005 minutes, class symbol.
[6] abbreviates: read-out: CsgA ThT Assay (10 μM CsgA) % Control AUC at 1005 minutes, 100 μM, mean AUC as % of DMSO control, CsgA 10 μM, black plates, compound 100 μM, 1005 minutes.
The mark [7] stands for this setting: Escherichia coli, read-out: Reporter Assay Abs IC50 (activity range), median Abs IC50 in the CsgA reporter assay, class symbol.

The structures appear in SMILES notation. Read-outs that look alike come from different tables or passages of the source. Bounds are passed on as bounds.

T1 sequence (P28307 23-151): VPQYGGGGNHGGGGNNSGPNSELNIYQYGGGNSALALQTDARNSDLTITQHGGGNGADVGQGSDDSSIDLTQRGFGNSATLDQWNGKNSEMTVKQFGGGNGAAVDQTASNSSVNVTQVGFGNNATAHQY

The IC50 is the point on the concentration scale where inhibition reaches its midpoint. In the case of `NC(=O)c1c(Cc2cccc3ccccc23)c(-c2cccc(C(F)(F)F)c2)c2n(c1=O)C(C(=O)O)CN(CCCCO)S2(=O)=O` (stereo not drawn) [Compound 183, 7-carbamoyl-2-(4-hydroxybutyl)-8-(naphthalen-1-ylmethyl)-6-oxo-9-(3-(trifluoromethyl)phenyl)-3,4-dihydro-2H,6H-pyrido[1,2-e][1,2,5]thiadiazine-4-carboxylic acid 1,1-dioxide], the remaining activity at 25 µM at E. coli CsgA (read-out: CsgA ThT Assay (2 μM CsgA) % Control Bmax 25 μM, activity range, class symbol, CsgA 2 μM, white plates, compound 25 μM) is 31 to 60%; at E. coli CsgA (read-out: CsgA ThT Assay (2 μM CsgA) % Control Bmax 25 μM, mean Bmax as percentage of DMSO control, CsgA 2 μM, white plates, compound 25 μM) it was 32%. Further, the remaining activity at 100 µM at E. coli CsgA (read-out: CsgA ThT Assay (2 μM CsgA) % Control Bmax 100 μM, activity range, class symbol, CsgA 2 μM, white plates, compound 100 μM) is 11 to 31%; at E. coli CsgA (read-out: CsgA ThT Assay (2 μM CsgA) % Control Bmax 100 μM, mean Bmax as percentage of DMSO control, CsgA 2 μM, white plates, compound 100 μM), 26%. The IC50 in assay [1] (setting [2]) is 0.8 µM; in assay [1] (Escherichia coli, read-out: Reporter Assay Abs IC50, activity range, class symbol), under 1.3 µM.
For the compound `O=C(O)C1CSc2c(-c3cccc(C(F)(F)F)c3)c(Cc3cccc4ccccc34)cc(=O)n21` (single isomer, unassigned) [Compound 011b, 7-(naphthalen-1-ylmethyl)-5-oxo-8-(3-(trifluoromethyl)phenyl)-2,3-dihydro-5H-thiazolo[3,2-a]pyridine-3-carboxylic acid], at E. coli CsgA (CsgA 10 μM, black plates, compound 25 μM, 1005 minutes, class symbol), the “CsgA ThT Assay (10 μM CsgA) % Control AUC at 1005 minutes, 25 μM (activity range)” value is “(++) (% control AUC of 31 to 60%)”. In addition, the “CsgA ThT Assay (10 μM CsgA) % Control AUC at 1005 minutes, 100 μM (activity range)” value on E. coli CsgA (CsgA 10 μM, black plates, compound 100 μM, 1005 minutes, class symbol) is recorded as “(++) (% control AUC of 31 to 60%)”. Moreover, the “CsgA ThT Assay (10 μM CsgA) % Control AUC at 1005 minutes, 25 μM” value at E. coli CsgA (mean AUC as % of DMSO control, CsgA 10 μM, black plates, compound 25 μM, 1005 minutes) was determined as 54%. In addition, the “CsgA ThT Assay (10 μM CsgA) % Control AUC at 1005 minutes, 100 μM” value at E. coli CsgA (mean AUC as % of DMSO control, CsgA 10 μM, black plates, compound 100 μM, 1005 minutes) is reported as 53%. The IC50 in assay [1] (read-out: Reporter Assay Abs IC50 (activity range), median Abs IC50 in the CsgA reporter assay, class symbol) is 1.3 to 4.5 µM; in assay [1] (read-out: Reporter Assay Abs IC50, median Abs IC50 in the CsgA reporter assay, N/A = maximum expression reduction is <50% of control), 4.1 µM.
For the compound `CCCCCN1CC(C(=O)O)n2c(c(-c3cccc(C(F)(F)F)c3)c(Cc3cccc4ccccc34)c(N)c2=O)S1(=O)=O` (stereo not drawn) [Compound 094, 7-amino-8-(naphthalen-1-ylmethyl)-6-oxo-2-pentyl-9-(3-(trifluoromethyl)phenyl)-3,4-dihydro-2H,6H-pyrido[1,2-e][1,2,5]thiadiazine-4-carboxylic acid 1,1-dioxide], the remaining activity at 25 µM at E. coli CsgA (setting [3]) was 31 to 60%; at E. coli CsgA (setting [4]), 51%. Further, the results for the remaining activity at 100 µM at E. coli CsgA (setting [5]) and on E. coli CsgA (setting [6]) were 11 to 31% and 30%, respectively. Further, the 50% inhibitory concentration (IC50) was 1.3 to 4.5 µM in assay [1] (setting [7]) and 1.9 µM in assay [1] (setting [2]).
For `Nc1c(Cc2cccc3ccccc23)c(-c2cccc(C(F)(F)F)c2)c2n(c1=O)C(C(=O)O)CO2` (stereo not drawn) [Compound 069, 6-amino-7-(naphthalen-1-ylmethyl)-5-oxo-8-(3-(trifluoromethyl)phenyl)-2,3-dihydro-5H-oxazolo[3,2-a]pyridine-3-carboxylic acid], the remaining activity at 25 µM was 31 to 60% at E. coli CsgA (setting [3]) and 58% at E. coli CsgA (setting [4]). Moreover, the remaining activity at 100 µM at E. coli CsgA (setting [5]) is 11 to 31%; on E. coli CsgA (setting [6]), 14%. Further, the IC50 in assay [1] (setting [7]) is 4.6 to 10 µM; in assay [1] (setting [2]), 5.7 µM.
`CCCN1CC(C(=O)O)n2c(c(-c3cccc(C(F)(F)F)c3)c(Cc3cccc4ccccc34)c(N)c2=O)S1(=O)=O` (stereo not drawn) [Compound 089, 7-amino-8-(naphthalen-1-ylmethyl)-6-oxo-2-propyl-9-(3-(trifluoromethyl)phenyl)-3,4-dihydro-2H,6H-pyrido[1,2-e][1,2,5]thiadiazine-4-carboxylic acid 1,1-dioxide]: the remaining activity at 25 µM on E. coli CsgA (setting [3]) was 31 to 60%; at E. coli CsgA (setting [4]), 31%. Besides, the values for the remaining activity at 100 µM on E. coli CsgA (setting [5]) and on E. coli CsgA (setting [6]) were 11 to 31% and 23%, respectively. Besides, the IC50 in assay [1] (setting [7]) was 4.6 to 10 µM; in assay [1] (setting [2]) it was 8 µM.
